Results reported in US20120245193A1, “PER[…] μ OPIOID ANTAGONISTS” (Alkermes, Inc., priority 2011, published 2012).

How the values were obtained:
[1] = test system: patients diagnosed with opioid-induced bowel dysfunction (OBD); assay: Multicenter, multi-dose study in patients with opioid-induced bowel dysfunction; type: in vivo, human
Method: In this multicenter, multi-dose study, 87 patients diagnosed with opioid-induced bowel dysfunction (OBD) during treatment with opioids for chronic, non-cancer pain were randomized to receive escalating doses of Compound-1 (1-100 mg), or placebo with a pre-defined dose escalation schedule. […] (FIG. 8).
The mean change from baseline in CSBMs per week for patients receiving 100 mg Compound-1 was 3.6 versus 0.8 in the placebo group (p=0.006), or a net increase of 2.8 CSBMs over placebo.

Male Swiss-Webster mice = assay: PGE2 test of gut motility (inhibition of morphine's blockade of PGE2-induced diarrhea); type: in vivo
Method: A rodent model of gut motility model (Russell, et al., 1982; Eur. J. Pharm., 78: 255-61) was used to evaluate the bioavailability and efficacy of Compound-1 in […]. The PGE2 test of gut motility evaluates the inhibition of morphine's side effects. PGE2 (a prostaglandin) induces diarrhea in mice within 15 minutes of an intraperitoneal injection (0.1 mg/kg). Morphine (1 mg/kg, IP) blocks this effect. Peripherally-acting opioid antagonists inhibit morphine's blockade of PGE2-induced diarrhea. Male Swiss-Webster mice (n=10/group) were administered Compound-1 or a reference compound 15 minutes (IP or PO) prior to morphine and placed in a Plexiglas pie cage. PGE2 was administered 30 minutes after morphine. Observations of diarrhea were made 15 minutes after PGE2 administration. Duration of action was tested by adjusting the time between Compound-1 and morphine administration. FIGS. 2 and 3 show the effectiveness of reference compound methylnaltrexone (MNTX) and Compounds 1-4 to inhibit opioid-induced delay in gut motility by oral and IP administration.
(NTX represents naltrexone).

Compound: C[N+]1(CC2CC2)CC[C@]23CC(=O)CC[C@@]2(O)[C@H]1Cc1ccc(C(N)=O)c(O)c13 (stereo partly drawn) [Compound-1]
- change from baseline in number of average spontaneous bowel movements (SBMs) in comparison to placebo ([1]; 30 mg dose): statistically significant increase
- net increase of CSBMs over placebo ([1]; 100 mg): 2.8 CSBMs
- average number of complete spontaneous bowel movements (CSBMs) per week from baseline as compared to placebo ([1]; 100 mg dose): clinically meaningful and statistically significant increase
- change from baseline in number of average spontaneous bowel movements (SBMs) in comparison to placebo ([1]; 100 mg dose): statistically significant increase
- net increase of SBMs over placebo ([1]; 100 mg once-daily): 3.9 SBMs
- mean change from baseline in the average number of SBMs per week ([1]; 100 mg once-daily, placebo 0.7, p=0.003): 4.6 SBMs per week
- mean change from baseline in CSBMs per week ([1]; 100 mg, placebo 0.8, p=0.006): 3.6 CSBMs per week
- opioid use ([1]; escalating doses 1-100 mg): no increase in opioid use
- reversal of analgesia as measured by change in Numerical Pain Rating Scale (NPRS) scores ([1]; escalating doses 1-100 mg): no reversal of analgesia
- duration of action compared with MNTX (Male Swiss-Webster mice; minimal effective PO dose of Compound-1 vs minimal effective IP dose of MNTX, FIG. 7): longer duration of action than MNTX
- dose relative to methylnaltrexone at which morphine's effects are blocked (Male Swiss-Webster mice; oral administration, FIG. 6): 3 fold lower
- duration of blocking morphine's effects (Male Swiss-Webster mice; oral administration, FIG. 6, compared with methylnaltrexone): up to 4 hours
